Here are results for one molecule from patent publication US20250319034A1, “MICROSPHERE PRODUCTION METHOD” (VITALTE LIFESCIENCES INC., priority 2024, published 2025).

SMILES strings stand for the structures.

The data set in a line: T release study in saline incubation media. As to conditions: saline incubation media, 2, 4 and 6 hours. In kind it is physicochemical. On the procedure: In order to compare the release rate results of hydrogel encapsulated T to pelleted T, larger gels had to be prepared as the T pellets which the hydrogels are intended to replace are 25 mg, where the E2 pellets are merely 6 mg. Thus, approximately 83 mg of hydrogel at 30% T loading and 1% HA were prepared. In order to achieve even or consistent crosslinking in these much larger hydrogel samples, Likarda's patented micromolds (shown in FIG. 21) were employed. After formation, the encapsulated T was removed from the molds and placed in tubes to be rotated for an hour. The encapsulated T hydrogels were then removed from the tubes and stored in Dulbecco's PBS buffer. The large hydrogel blocks encapsulating T were then tested and compared to 25 mg T pellets and micronized T powder.
The T powder was produced as a 2.5 mg/mL slurry in buffer to reach the near saturation point of T in the buffer. Samples of the T powder slurry were removed from only the top layer of the slurry fluid to avoid aspirating T particles in the slurry that may have precipitated at to the bottom. T pellets were collected directly from the vials in which they were stored. The 83 mg hydrogels containing 30% T were collected from Dulbecco's PBS buffer, rinsed, and dried. Each of the collected samples was then placed in a separate container of incubation media (saline in this instance) for the release studies. […]

As for `C[C@]12CC[C@H]3[C@@H](CCC4=CC(=O)CC[C@@]43C)[C@@H]1CC[C@@H]2O` [T powder, Testosterone], the “approximate saturation level of T in saline” value is given as “about 1.5 mg/L”.
